Patent publication US20240287076A1, “COMPOUNDS FOR TARGETING DEGRADATION OF BRUTON'S TYROSINE KINASE” (BIOGEN MA INC., priority 2021, published 2024)

What follows are compounds tested against T1, BTK (Homo sapiens, UniProt Q06187) (assay: BTK degradation assay using the HiBiT Method (Nano-Glo HiBiT Lytic Assay, GM01501.3 cells)). Settings: HiBiT Degradation on GM01501.3 BTK @ 6 hours.
T1 construct: The GM01501.3 cell line endogenously expresses BTK with a HiBiT fusion tag via CRISPR knock-in at its C-terminal region; endogenous in cells; host or cells: GM01501.3 (GM01501 cells engineered by CRISPR knock-in of HiBiT at the BTK locus)
Assay type: cell-based
In short: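 CRISPR knock-in GM01501.3 cells expressing endogenous BTK with C-terminal HiBiT tag, treated 6 h at 37 °C with compounds, 11-point half-log titration from 10 μM top, duplicates. Remaining BTK quantified by Nano-Glo HiBiT lytic luminescence versus DMSO controls; DC50 reported.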

T1 sequence (Q06187 whole entry, the tested form may be a part): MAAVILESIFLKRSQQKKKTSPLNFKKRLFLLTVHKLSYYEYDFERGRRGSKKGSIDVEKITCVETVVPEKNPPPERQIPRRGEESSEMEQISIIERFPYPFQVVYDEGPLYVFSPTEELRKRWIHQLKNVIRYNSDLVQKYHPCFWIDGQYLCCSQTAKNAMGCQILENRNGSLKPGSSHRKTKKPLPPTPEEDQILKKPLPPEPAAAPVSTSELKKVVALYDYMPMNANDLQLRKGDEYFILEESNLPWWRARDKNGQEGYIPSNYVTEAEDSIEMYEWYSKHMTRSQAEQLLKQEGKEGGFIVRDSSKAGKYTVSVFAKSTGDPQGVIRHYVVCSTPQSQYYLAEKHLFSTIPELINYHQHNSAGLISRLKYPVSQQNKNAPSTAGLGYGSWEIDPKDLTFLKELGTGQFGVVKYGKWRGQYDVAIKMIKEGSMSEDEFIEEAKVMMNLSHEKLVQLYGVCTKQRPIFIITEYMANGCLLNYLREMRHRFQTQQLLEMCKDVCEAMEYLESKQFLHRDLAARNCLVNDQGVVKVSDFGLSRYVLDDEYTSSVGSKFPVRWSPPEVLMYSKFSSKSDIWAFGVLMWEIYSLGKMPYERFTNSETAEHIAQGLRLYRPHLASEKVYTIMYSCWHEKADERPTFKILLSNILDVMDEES

Row | Compound | DC50
1 | CC(C)(C)c1nc(C(=O)NCc2ccc(-c3ncnn4cc(CCN5CCC(c6ccc(C7(C)CCC(=O)NC7=O)cc6)CC5)cc34)cc2F)no1 (stereo not drawn) [Example 121, 5-tert-butyl-N-[[2-fluoro-4-[6-[2-[4-[4-(3-methyl-2,6-dioxo-3-piperidyl)phenyl]-1-piperidyl]ethyl]pyrrolo[2,1-f][1,2,4]triazin-4-yl]phenyl]methyl]-1,2,4-oxadiazole-3-carboxamide] | 100 to 500 nM
2 | Cc1cc(-c2ncnn3cc(-c4ccc(CN5CCC(c6cnc(NC7CCC(=O)NC7=O)nc6)CC5)cc4)cc23)ccc1CNC(=O)c1noc(C(C)(C)C)n1 (stereo not drawn) [Example 30, 5-tert-butyl-N-[[4-[6-[4-[[4-[2-[(2,6-dioxo-3-piperidyl)amino]pyrimidin-5-yl]-1-piperidyl]methyl]phenyl]pyrrolo[2,1-f][1,2,4]triazin-4-yl]-2-methyl-phenyl]methyl]-1,2,4-oxadiazole-3-carboxamide] | < 100 nM
3 | CC(C)(C)c1nc(C(=O)NCc2ccc(-c3ncnn4cc(-c5ccc(CN6CCC(c7ccc(NC8CCC(=O)NC8=O)cc7)CC6)cc5)cc34)cc2)no1 (stereo not drawn) [Example 41, 5-tert-butyl-N-[[4-[6-[4-[[4-[4-[(2,6-dioxo-3-piperidyl)amino]phenyl]-1-piperidyl]methyl]phenyl]pyrrolo[2,1-f][1,2,4]triazin-4-yl]phenyl]methyl]-1,2,4-oxadiazole-3-carboxamide] | < 100 nM
4 | Cc1cc(-c2ncnn3cc(-c4cc(CN5CCC(c6ccc(C7CCC(=O)NC7=O)cc6)CC5)ccn4)cc23)ccc1CNC(=O)c1noc(C(C)(C)C)n1 (stereo not drawn) [Example 216, 5-(tert-butyl)-N-(4-(6-(4-((4-(4-(2,6-dioxopiperidin-3-yl)phenyl)piperidin-1-yl)methyl)pyridin-2-yl)pyrrolo[2,1-f][1,2,4]triazin-4-yl)-2-methylbenzyl)-1,2,4-oxadiazole-3-carboxamide] | < 100 nM
5 | CC(C)(C)c1nc(C(=O)NCc2ccc(-c3ncnn4cc(-c5ccc(OCCN6CCC(c7ccc(NC8CCC(=O)NC8=O)nc7)CC6)cc5)cc34)cc2F)no1 (stereo not drawn) [Example 110, 5-tert-butyl-N-[[4-[6-[4-[2-[4-[6-[(2,6-dioxo-3-piperidyl)amino]-3-pyridyl]-1-piperidyl]ethoxy]phenyl]pyrrolo[2,1-f][1,2,4]triazin-4-yl]-2-fluoro-phenyl]methyl]-1,2,4-oxadiazole-3-carboxamide] | < 100 nM
6 | Cc1cc(-c2ncnn3cc(N4CCN(C(=O)c5ncoc5CNC(=O)c5ccc(OC6CCC(=O)NC6=O)cc5)CC4)cc23)ccc1CNC(=O)c1noc(C(C)(C)C)n1 (stereo not drawn) [Example 189, 5-(tert-butyl)-N-(4-(6-(4-(5-((4-((2,6-dioxopiperidin-3-yl)oxy)benzamido)methyl)oxazole-4-carbonyl)piperazin-1-yl)pyrrolo[2,1-f][1,2,4]triazin-4-yl)-2-methylbenzyl)-1,2,4-oxadiazole-3-carboxamide] | < 100 nM
7 | COc1cc(-c2cc3c(-c4ccc(CNC(=O)c5noc(C(C)(C)C)n5)c(C)c4)ncnn3c2)ccc1CN1CCC(c2ccc(NC3CCC(=O)NC3=O)cc2)CC1 (stereo not drawn) [Example 16, 5-tert-butyl-N-[[4-[6-[4-[[4-[4-[(2,6-dioxo-3-piperidyl)amino]phenyl]-1-piperidyl]methyl]-3-methoxy-phenyl]pyrrolo[2,1-f][1,2,4]triazin-4-yl]-2-methyl-phenyl]methyl]-1,2,4-oxadiazole-3-carboxamide] | < 100 nM
8 | Cc1cc(-c2ncnn3cc(-c4ccc(CN5CCC(c6ccc(NC7CCC(=O)NC7=O)cc6)CC5)cc4)cc23)ccc1CNC(=O)c1coc(C(C)(C)C)n1 (stereo not drawn) [Example 78, 2-tert-butyl-N-[[4-[6-[4-[[4-[4-[(2,6-dioxo-3-piperidyl)amino]phenyl]-1-piperidyl]methyl]phenyl]pyrrolo[2,1-f][1,2,4]triazin-4-yl]-2-methyl-phenyl]methyl]oxazole-4-carboxamide] | < 100 nM
9 | Cc1cc(-c2ncnn3cc(CCN4CC[C@@H](c5ccc6c(N7CCC(=O)NC7=O)nn(C)c6c5)C4)cc23)ccc1CNC(=O)c1noc(C(C)(C)C)n1 (single isomer, unassigned) [Example 266] | < 100 nM
10 | Cc1cc(-c2ncnn3cc(-c4ccc(CN5CCC(c6ccc(OC7CCC(=O)NC7=O)cc6)CC5)cc4)cc23)ccc1CNC(=O)c1noc(C(C)(C)C)n1 (stereo not drawn) [Example 19, 5-tert-butyl-N-[[4-[6-[4-[[4-[4-[(2,6-dioxo-3-piperidyl)oxy]phenyl]-1-piperidyl]methyl]phenyl]pyrrolo[2,1-f][1,2,4]triazin-4-yl]-2-methyl-phenyl]methyl]-1,2,4-oxadiazole-3-carboxamide] | < 100 nM
11 | Cc1cc(-c2ncnn3cc(N4CCN(C(=O)CCCCC5CCN(C(=O)c6ccc(OC7CCC(=O)NC7=O)cc6)CC5)CC4)cc23)ccc1CNC(=O)c1noc(C(C)(C)C)n1 (stereo not drawn) [Example 182, 5-(tert-butyl)-N-(4-(6-(4-(5-(1-(4-((2,6-dioxopiperidin-3-yl)oxy)benzoyl)piperidin-4-yl)pentanoyl)piperazin-1-yl)pyrrolo[2,1-f][1,2,4]triazin-4-yl)-2-methylbenzyl)-1,2,4-oxadiazole-3-carboxamide] | < 100 nM
12 | Cc1cc(-c2ncnn3cc(CCN4CCC(c5ccc6c7c(cccc57)C(=O)N6C5CCC(=O)NC5=O)CC4)cc23)ccc1CNC(=O)c1noc(C(C)(C)C)n1 (stereo not drawn) [Example 274, 5-(tert-butyl)-N-(4-(6-(2-(4-(1-(2,6-dioxopiperidin-3-yl)-2-oxo-1,2-dihydrobenzo[cd]indol-6-yl)piperidin-1-yl)ethyl)pyrrolo[2,1-f][1,2,4]triazin-4-yl)-2-methylbenzyl)-1,2,4-oxadiazole-3-carboxamide] | < 100 nM
13 | CC(C)(C)OC1CN(C(=O)NCc2ccc(-c3ncnn4cc(-c5ccc(CN6CCC(c7ccc(NC8CCC(=O)NC8=O)cc7)CC6)c(F)c5)cc34)cc2F)C1 (stereo not drawn) [Example 221, 3-(tert-butoxy)-N-(4-(6-(4-((4-(4-((2,6-dioxopiperidin-3-yl)amino)phenyl)piperidin-1-yl)methyl)-3-fluorophenyl)pyrrolo[2,1-f][1,2,4]triazin-4-yl)-2-fluorobenzyl)azetidine-1-carboxamide] | < 100 nM
14 | COc1cc(-c2ncnn3cc(-c4ccc(CN5CCC(c6ccc(C7CCC(=O)NC7=O)cc6)CC5)cc4)cc23)ccc1CNC(=O)c1noc(C(C)(C)C)n1 (stereo not drawn) [Example 43, 5-tert-butyl-N-[[4-[6-[4-[[4-[4-(2,6-dioxo-3-piperidyl)phenyl]-1-piperidyl]methyl]phenyl]pyrrolo[2,1-f][1,2,4]triazin-4-yl]-2-methoxy-phenyl]methyl]-1,2,4-oxadiazole-3-carboxamide] | < 100 nM
15 | O=C1CCC(Nc2ccc(C3CCN(Cc4ccc(-c5cc6c(-c7ccc(CNC(=O)c8ccc(C(F)F)cc8)c(F)c7)ncnn6c5)cc4)CC3)cc2)C(=O)N1 (stereo not drawn) [Example 101, 4-(difluoromethyl)-N-[[4-[6-[4-[[4-[4-[(2,6-dioxo-3-piperidyl)amino]phenyl]-1-piperidyl]methyl]phenyl]pyrrolo[2,1-f][1,2,4]triazin-4-yl]-2-fluoro-phenyl]methyl]benzamide] | < 100 nM
16 | Cc1cc(-c2ncnn3cc(CCCCN4CCC(c5ccc6c(N7CCC(=O)NC7=O)nn(C)c6c5)CC4)cc23)ccc1CNC(=O)c1noc(C(C)(C)C)n1 [Example 133, 5-tert-butyl-N-[[4-[6-[4-[4-[3-(2,4-dioxohexahydropyrimidin-1-yl)-1-methyl-indazol-6-yl]-1-piperidyl]butyl]pyrrolo[2,1-f][1,2,4]triazin-4-yl]-2-methyl-phenyl]methyl]-1,2,4-oxadiazole-3-carboxamide] | < 100 nM
17 | Cc1cc(-c2ncnn3cc(-c4cn5c(CN6CCC(c7ccc(C8CCC(=O)NC8=O)cc7)CC6)cnc5s4)cc23)ccc1CNC(=O)c1noc(C(C)(C)C)n1 (stereo not drawn) [Example 210, 5-(tert-butyl)-N-(4-(6-(5-((4-(4-(2,6-dioxopiperidin-3-yl)phenyl)piperidin-1-yl)methyl)imidazo[2,1-b]thiazol-2-yl)pyrrolo[2,1-f][1,2,4]triazin-4-yl)-2-methylbenzyl)-1,2,4-oxadiazole-3-carboxamide] | 100 to 500 nM
18 | Cc1cc(-c2ncnn3cc(OCCCN4CCC(c5ccc6c(N7CCC(=O)NC7=O)nn(C)c6c5)CC4)cc23)ccc1CNC(=O)N1CC(OC(C)(C)C)C1 [Example 293, 3-(tert-butoxy)-N-(4-(6-(3-(4-(3-(2,4-dioxotetrahydropyrimidin-1(2H)-yl)-1-methyl-1H-indazol-6-yl)piperidin-1-yl)propoxy)pyrrolo[2,1-f][1,2,4]triazin-4-yl)-2-methylbenzyl)azetidine-1-carboxamide] | < 100 nM
19 | Cc1cc(-c2ncnn3cc(-c4ccc(CN5CCC(c6ccc(NC7CCC(=O)NC7=O)cc6)CC5)cc4)cc23)ccc1CNC(=O)c1ccc(C(F)(F)F)nc1 (stereo not drawn) [Example 63, N-[[4-[6-[4-[[4-[4-[(2,6-dioxo-3-piperidyl)amino]phenyl]-1-piperidyl]methyl]phenyl]pyrrolo[2,1-f][1,2,4]triazin-4-yl]-2-methyl-phenyl]methyl]-6-(trifluoromethyl)pyridine-3-carboxamide] | < 100 nM
20 | Cc1cc(-c2ncnn3cc(-c4ccc(OCCCCN5CCC(c6ccc(NC7CCC(=O)NC7=O)cc6)CC5)cc4)cc23)ccc1CNC(=O)c1noc(C(C)(C)C)n1 (stereo not drawn) [Example 113, -tert-butyl-N-[[4-[6-[4-[4-[4-[4-[(2,6-dioxo-3-piperidyl)amino]phenyl]-1-piperidyl]butoxy]phenyl]pyrrolo[2,1-f][1,2,4]triazin-4-yl]-2-methyl-phenyl]methyl]-1,2,4-oxadiazole-3-carboxamide] | < 100 nM
21 | Cc1cc(-c2ncnn3cc(-c4ccc(C(=O)NCCc5cccc(NC6CCC(=O)NC6=O)c5)cc4)cc23)ccc1CNC(=O)c1noc(C(C)(C)C)n1 (stereo not drawn) [Example 196] | < 100 nM
